Source: US7795437B2, “Ether derivatives” (Hoffmann-La Roche Inc., priority 2006, dated 2010)

Columns and labels:
[1] = target: T1, human 5-HT2A serotonin receptor (Homo sapiens, UniProt P28223); assay: Radioligand binding to cloned human 5-HT2A receptor ([3H]-ketanserin); settings: second value of D3/5HT2A/D2; membranes of transfected HEK-293 EBNA cells, 1.1 nM [3H]-ketanserin, 1 h at RT
T1 construct: expressed in transfected cells; host or cells: HEK-293 EBNA cells (transient transfection; membrane preparation)
Experimental: (§1) The ability of compounds of the present invention to bind to the 5-HT2A, D3 and D2 receptors was determined using radioligand binding to cloned receptors selectively expressed in HEK-293 EBNA cells.
(§2) Membrane Preparation for Human D2, Human D3 and Human 5-HT2A Receptors
(§3) HEK-293 EBNA cells were transiently transfected with expression plasmids encoding for the human D2 or D3 dopamine- or for the human 5-HT2A serotonin receptor, respectively. The cells were harvested 48 hours post-transfection, washed three times with cold phosphate buffered saline (PBS) and stored at −80° C. prior to use. The pellet was suspended in cold 50 mM Tris-HCl buffer containing 10 mM EDTA (pH 7.4) and homogenized with a Polytron (Kinematica AG, Basel, Switzerland) for 20-30 seconds at 12.000 rpm. After centrifugation at 48.000×g for 30 minutes at 4° C., the pellet was resuspended in cold 10 mM Tris-HCl buffer containing 0.1 mM EDTA (pH 7.4), homogenized, and centrifuged as above. This pellet was further resuspended in a smaller volume of ice cold 10 mM Tris-HCl buffer containing 0.1 mM EDTA (pH 7.4) and homogenized with a Polytron for 20-30 sec at 12.000 rpm. The protein content of this homogenate was determined with the Bio-Rad (Bradford) Protein Assay (Biorad Laboratories GmbH, München, Germany) according to the instructions of the manufacturer using gamma globulin as the standard. This homogenate was stored at −80° C. in aliquots and thawed immediately prior to use.
(§4) Radioligand Binding Assay Conditions
(§5) Aliquots of membrane preparations were thawed at room temperature, resuspended in assay buffer (D2, D3: 50 mM Tris-HCl, 120 mM NaCl, 5 mM MgCl2, 1 mM EDTA, 5 mM KCl, 1.5 mM CaCl2, pH=7.4; 5-HT2A: 50 mM Tris-HCl, 10 mM MgCl2, 1 mM EGTA, pH=7.4), homogenized with a Polytron for 20-30 seconds at 12.000 rpm and adjusted to a final concentration of approximately 7.5 μg protein/well (D2, D3) and 15 μg protein/well (5-HT2A), respectively.
(§6) The binding affinity (Ki) of the compounds was determined using radioligand binding. Membranes were incubated in a total volume of 200 μl with a fixed concentration of radioligand (final concentration approximately 0.7 nM [^3H]-spiperone for D2, 0.5 nM [^3H]-spiperone for D3, and 1.1 nM [^3H]-ketanserin for 5-HT2A) and ten concentrations of test compound ranging between 10 μM-0.1 nM for 1 h at RT. At the end of the incubation, the reaction mixtures were filtered on to unifilter 96-well white microplates with bonded GF/C filters (Packard BioScience, Zudrich, Switzerland; preincubated for 1 h in 0.1% polyethylenimine (PEI) in assay buffer) with a Filtermate 196 harvester (Packard BioScience) and washed 3 times with cold assay buffer. The nonspecific binding was determined with equally composed reaction mixtures in the presence of 10 μM unlabelled spiperone. Per well 45 μl of Microscint 40 (Perkin Elmer, Schwerzenbach, Switzerland) was added, plates for sealed, shaken for 20 min and counted for 3 minutes on a Topcount Microplate Scintillation Counter (Can berra Packard SA, Zu-rich, Switzerland) with quenching correction.
(§7) The CPM value for each duplicate of a concentration of competing compound was averaged (y1), then the % specific binding was calculated according to the equation (((y1−non-specific)/(total binding-non-specific))×100). Graphs were plotted with the % specific binding using XLfit, a curve fitting program that iteratively plots the data using Levenburg Marquardt algorithm. The single site competition analysis equation used was y=A+((B−A)/(1+((x/C)^D))), where y is the % specific binding, A is the minimum y, B is the maximum y, C is the IC50, x is the log10 of the concentration of the competing compound and D is the slope of the curve (the Hill Coefficient). From these curves the IC50 (inhibition concentration at which 50% specific binding of the radioligand was displaced) and Hill coefficient were determined. […]

[2] = target: T2, human D2 dopamine receptor (Homo sapiens, UniProt P14416); assay: Radioligand binding to cloned human D2 receptor ([3H]-spiperone); settings: third value of D3/5HT2A/D2; membranes of transfected HEK-293 EBNA cells, 0.7 nM [3H]-spiperone, 1 h at RT
T2 construct: expressed in transfected cells; host or cells: HEK-293 EBNA cells (transient transfection; membrane preparation)
Experimental: as §1, §2, §3, §4, §5, §6, §7

[3] = target: T3, human D3 dopamine receptor (Homo sapiens, UniProt P35462); assay: Radioligand binding to cloned human D3 receptor ([3H]-spiperone); settings: first value of D3/5HT2A/D2; membranes of transfected HEK-293 EBNA cells, 0.5 nM [3H]-spiperone, 1 h at RT
T3 construct: expressed in transfected cells; host or cells: HEK-293 EBNA cells (transient transfection; membrane preparation)
Experimental: as §1, §2, §3, §4, §5, §6, §7

T1 sequence (P28223 whole entry): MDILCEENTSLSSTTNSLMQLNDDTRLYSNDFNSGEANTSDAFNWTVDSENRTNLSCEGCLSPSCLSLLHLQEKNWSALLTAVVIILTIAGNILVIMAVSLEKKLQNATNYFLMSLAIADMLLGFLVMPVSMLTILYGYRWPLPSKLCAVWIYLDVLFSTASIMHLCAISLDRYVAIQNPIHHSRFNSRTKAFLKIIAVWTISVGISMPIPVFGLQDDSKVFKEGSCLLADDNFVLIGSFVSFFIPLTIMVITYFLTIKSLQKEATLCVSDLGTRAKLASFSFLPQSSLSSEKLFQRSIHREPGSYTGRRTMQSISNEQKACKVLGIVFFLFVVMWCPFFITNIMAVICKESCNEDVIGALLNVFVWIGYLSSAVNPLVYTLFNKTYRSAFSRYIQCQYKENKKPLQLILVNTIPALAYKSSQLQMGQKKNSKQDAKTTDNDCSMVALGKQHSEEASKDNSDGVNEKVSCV
T3 sequence (P35462 whole entry): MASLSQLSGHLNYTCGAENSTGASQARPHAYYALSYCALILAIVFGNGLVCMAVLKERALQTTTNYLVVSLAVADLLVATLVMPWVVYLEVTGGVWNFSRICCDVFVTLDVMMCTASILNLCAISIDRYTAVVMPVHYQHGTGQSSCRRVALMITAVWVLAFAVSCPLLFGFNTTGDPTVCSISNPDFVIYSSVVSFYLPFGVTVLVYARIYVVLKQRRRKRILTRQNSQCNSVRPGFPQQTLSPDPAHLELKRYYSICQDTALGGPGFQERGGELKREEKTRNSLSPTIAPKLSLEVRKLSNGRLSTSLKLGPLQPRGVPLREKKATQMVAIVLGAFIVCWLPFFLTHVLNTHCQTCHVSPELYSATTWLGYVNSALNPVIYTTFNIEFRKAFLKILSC
T2 sequence (P14416 whole entry): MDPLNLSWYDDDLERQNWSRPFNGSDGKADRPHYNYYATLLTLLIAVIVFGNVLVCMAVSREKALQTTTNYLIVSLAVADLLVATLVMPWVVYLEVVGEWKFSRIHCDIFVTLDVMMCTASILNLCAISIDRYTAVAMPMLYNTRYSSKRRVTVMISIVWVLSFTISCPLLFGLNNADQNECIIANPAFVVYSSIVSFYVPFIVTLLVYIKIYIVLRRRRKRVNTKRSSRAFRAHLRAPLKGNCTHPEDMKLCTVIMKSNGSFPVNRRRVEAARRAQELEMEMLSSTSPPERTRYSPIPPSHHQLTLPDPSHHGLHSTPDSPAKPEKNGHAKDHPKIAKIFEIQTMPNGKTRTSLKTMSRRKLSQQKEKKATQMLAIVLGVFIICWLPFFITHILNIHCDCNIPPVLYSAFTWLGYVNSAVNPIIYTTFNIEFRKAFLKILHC

Row | SMILES | Ki [1] | Ki [2] | Ki [3]
1 | O=C(N[C@H]1CC[C@H](CCN2CCC(Oc3ccc(F)cc3F)CC2)CC1)c1ccnc2ccccc12 [Example 24, Quinoline-4-carboxylic acid trans(4-{2-[4-(2,4-difluoro-phenoxy)-piperidin-1-yl]-ethyl}-cyclohexyl)-amide] | 3 nM | 453 nM | 8 nM
2 | O=C(Nc1ccc(Cl)cc1)N[C@H]1CC[C@H](CCN2CCC(Oc3ccc(F)cc3)CC2)CC1 [Example 9, Trans-1-(4-Chloro-phenyl)-3-(4-{2-[4-(4-fluoro-phenoxy)-piperidin-1-yl]-ethyl}-cyclohexyl)-urea] | 13 nM | 574 nM | 14 nM
3 | O=C(N[C@H]1CC[C@H](CCN2CCC(Oc3cc(F)c(F)cc3F)CC2)CC1)C1CCOCC1 [Example 51, Tetrahydro-pyran-4-carboxylic acid trans(4-{2-[4-(2,4,5-trifluoro-phenoxy)-piperidin-1-yl]-ethyl}-cyclohexyl)-amide] | 36 nM | 638 nM | 29 nM
4 | Cc1nc(-c2cccc(C(=O)N[C@H]3CC[C@H](CCN4CCC(Oc5ccc(F)cc5Cl)CC4)CC3)c2)no1 [Example 16, N-trans (4-{2-[4-(2-Chloro-4-fluoro-phenoxy)-piperidin-1-yl]-ethyl}-cyclohexyl)-3-(5-methyl-[1,2,4]oxadiazol-3-yl)-benzamide] | 5 nM | 553 nM | 11 nM
5 | Cc1ccc(NC(=O)N[C@H]2CC[C@H](CCN3CCC(Oc4ccc(F)cc4)CC3)CC2)cc1 [Example 10, Trans-1-(4-{2-[4-(4-Fluoro-phenoxy)-piperidin-1-yl]-ethyl}-cyclohexyl)-3-p-tolyl-urea] | 22 nM | 592 nM | 16 nM
6 | O=C(N[C@H]1CC[C@H](CCN2CCC(Oc3cccc(Cl)c3Cl)CC2)CC1)c1ccnc2ccccc12 [Example 72, Quinoline-4-carboxylic acid trans(4-{2-[4-(2,3-dichloro-phenoxy)-piperidin-1-yl]-ethyl}-cyclohexyl)-amide] | 9 nM | 319 nM | 5 nM
7 | O=C(N[C@H]1CC[C@H](CCN2CCC(Oc3ccncc3)CC2)CC1)c1ccnc2ccccc12 [Example 74, Quinoline-4-carboxylic acid (trans-4-{2-[4-(Pyridin-4-yloxy)-piperidin-1-yl]-ethyl}-cyclohexyl)-amide] | 60 nM | 3000 nM | 208 nM
8 | COCCC(=O)N[C@H]1CC[C@H](CCN2CCC(Oc3ccc(F)cc3Cl)CC2)CC1 [Example 13, N-trans (4-{2-[4-(2-Chloro-4-fluoro-phenoxy)-piperidin-1-yl]-ethyl}-cyclohexyl)-3-methoxy-propionamide] | 3 nM | 790 nM | 14 nM
9 | O=C(N[C@H]1CC[C@H](CCN2CCC(Oc3ccc(F)cc3Cl)CC2)CC1)C1CCOCC1 [Example 15, Tetrahydro-pyran-4-carboxylic acid trans (4-{2-[4-(2-chloro-4-fluoro-phenoxy)-piperidin-1-yl]-ethyl}-cyclohexyl)-amide] | 2 nM | 556 nM | 17 nM
10 | O=C(N[C@H]1CC[C@H](CCN2CCC(Oc3ccc(F)cc3Cl)CC2)CC1)c1ccnc2ccccc12 [Example 11, Quinoline-4-carboxylic acid trans(4-{2[4-(2-chloro-4-fluoro-phenoxy)-piperidin-1-yl]-ethyl}-cyclohexyl)-amide] | 2 nM | 321 nM | 17 nM
11 | COCCC(=O)N[C@H]1CC[C@H](CCN2CCC(Oc3ccc(F)cc3)CC2)CC1 [Example 3, N-(trans-4-{2-[4-(4-Fluoro-phenoxy)-piperidin-1-yl]-ethyl}-cyclohexyl)-3-methoxy-propionamide] | 22 nM | 1470 nM | 48 nM
12 | CCC(=O)N[C@H]1CC[C@H](CCN2CCC(Oc3ccc(F)cc3Cl)CC2)CC1 [Example 18, N-trans (4-{2-[4-(2-Chloro-4-fluoro-phenoxy)-piperidin-1-yl]-ethyl}-cyclohexyl)-propionamide] | 2 nM | 604 nM | 5 nM
13 | CC(=O)N[C@H]1CC[C@H](CCN2CCC(Oc3ccc(F)cc3)CC2)CC1 [Example 8, Trans N-(4-{2-[4-(4-Fluoro-phenoxy)-piperidin-1-yl]-ethyl}-cyclohexyl)-acetamide] | 31 nM | 843 nM | 50 nM
14 | Cc1ccc(NC(=O)N[C@H]2CC[C@H](CCN3CCC(Oc4ccc(F)cc4Cl)CC3)CC2)cc1 [Example 21, 1-trans(4-{2-[4-(2-Chloro-4-fluoro-phenoxy)-piperidin-1-yl]-ethyl}-cyclohexyl)-3-p-tolyl-urea] | 2 nM | 697 nM | 3 nM
15 | CC(=O)N[C@H]1CC[C@H](CCN2CCC(Oc3ccc(F)cc3Cl)CC2)CC1 [Example 19, N-trans(4-{2-[4-(2-Chloro-4-fluoro-phenoxy)-piperidin-1-yl]-ethyl}-cyclohexyl)-acetamide] | 3 nM | 683 nM | 12 nM
16 | CC(=O)N[C@H]1CC[C@H](CCN2CCC(Oc3ccc(Cl)cc3C#N)CC2)CC1 [Example 62, N-trans-(4-{2-[4-(4-Chloro-2-cyano-Phenoxy)-piperidin-1-yl]-ethyl}-cyclohexyl)-acetamide] | 43 nM | 3320 nM | 100 nM
